The series is described as follows: Differential thermal analysis (decomposition temperature). The series is classed as physicochemical. The following applies: ° C. for 2% weight loss. As for the experimental part: The decomposition temperature and the average particle diameter are determined on a flame retardant of the prior art—Exolit® OP 1230.

For the compound `COC(=O)CCP(C)(=O)[O-].COC(=O)CCP(C)(=O)[O-].[Ca+2]` [Example 13, H3C—P(═O)(OCa1/2)—CH2—CH2—CO2CH3], the “DTA (decomposition in differential thermal analysis)” value was determined as 317 °C. Regarding `COC(=O)CCP(C)(=O)[O-].COC(=O)CCP(C)(=O)[O-].COC(=O)CCP(C)(=O)[O-].[Al+3]` [Example 10, H3C—P(═O)(OAl1/3)—CH2—CH2—CO2CH3], the “DTA (decomposition in differential thermal analysis)” value amounted to 330 °C. On to `COC(=O)CCP(C)(=O)[O-].COC(=O)CCP(C)(=O)[O-].[Zn+2]` [Example 12, H3C—P(═O)(OZn1/2)—CH2—CH2—CO2CH3], for which the “DTA (decomposition in differential thermal analysis)” value was determined as 334 °C. As to `CCCCCCCCOC(=O)CCP(C)(=O)[O-].CCCCCCCCOC(=O)CCP(C)(=O)[O-].[Zn+2]` [Example 14, H3C—P(═O)(OZn1/2)—CH2—CH2—CO2C8H17], the “DTA (decomposition in differential thermal analysis)” value was 323 °C. `COC(=O)CCP(C)(=O)[O-].COC(=O)CCP(C)(=O)[O-].[Mg+2]` [Example 11, H3C—P(═O)(OMg1/2)—CH2—CH2—CO2CH3]: the “DTA (decomposition in differential thermal analysis)” value came out at 282 °C.

The values are drawn from patent publication US7838580B2, “Salts of alkyl esters of carboxyethyl(alkyl)phosphinic acid” (Clariant Finance (BVI) Limited, priority 2006, dated 2010).
